US9499492B2, “4-(ortho)-fluorophenyl-5-fluoropyrimidin-2-yl amines containing a sulfoximine group” (BAYER PHARMA AKTIENGESELLSCHAFT, priority 2012, dated 2016)
Read-outs that look alike come from different tables or passages of the source.

Columns and labels:
CDK9/CycT1 [1] = biological target: T1, CDK9/CycT1 (Homo sapiens (Human), UniProt P50750); experiment: CDK9/CycT1 kinase assay (Method 1a); assay type: biochemical; details: for IC50: 10 μM ATP; for Selectivity CDK9/CDK2: derived from Methods 1a. and 2.
T1 sequence (P50750 whole entry): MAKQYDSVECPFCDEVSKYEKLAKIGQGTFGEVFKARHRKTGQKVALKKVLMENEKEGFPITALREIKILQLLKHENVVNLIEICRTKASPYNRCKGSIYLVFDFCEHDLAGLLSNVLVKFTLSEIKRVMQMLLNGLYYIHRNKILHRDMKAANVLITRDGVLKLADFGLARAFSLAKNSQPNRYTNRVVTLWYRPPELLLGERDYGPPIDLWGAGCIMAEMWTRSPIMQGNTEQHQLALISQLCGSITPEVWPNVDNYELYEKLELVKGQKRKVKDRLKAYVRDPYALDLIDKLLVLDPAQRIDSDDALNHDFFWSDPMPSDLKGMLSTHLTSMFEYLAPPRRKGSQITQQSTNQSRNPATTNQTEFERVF
T1 sequence (O60563 whole entry partner): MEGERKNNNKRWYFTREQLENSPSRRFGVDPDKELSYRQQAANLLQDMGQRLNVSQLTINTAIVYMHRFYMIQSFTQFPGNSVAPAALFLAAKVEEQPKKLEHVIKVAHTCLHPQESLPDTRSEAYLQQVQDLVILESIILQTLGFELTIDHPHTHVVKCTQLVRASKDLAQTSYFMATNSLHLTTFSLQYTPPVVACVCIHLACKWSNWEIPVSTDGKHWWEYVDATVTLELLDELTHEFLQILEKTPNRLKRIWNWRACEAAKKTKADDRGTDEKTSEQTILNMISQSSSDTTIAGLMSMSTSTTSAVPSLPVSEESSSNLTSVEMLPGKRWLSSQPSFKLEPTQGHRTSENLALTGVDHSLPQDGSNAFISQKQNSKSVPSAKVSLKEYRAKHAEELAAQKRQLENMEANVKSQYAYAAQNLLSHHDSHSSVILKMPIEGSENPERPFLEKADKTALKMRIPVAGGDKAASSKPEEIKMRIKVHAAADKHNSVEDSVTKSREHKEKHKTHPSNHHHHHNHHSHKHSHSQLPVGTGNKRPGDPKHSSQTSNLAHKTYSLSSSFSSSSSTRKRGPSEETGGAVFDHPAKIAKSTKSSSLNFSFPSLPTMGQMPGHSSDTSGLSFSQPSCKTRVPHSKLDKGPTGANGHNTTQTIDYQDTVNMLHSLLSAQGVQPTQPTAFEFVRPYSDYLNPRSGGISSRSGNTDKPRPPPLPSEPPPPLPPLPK

CDK9/CycT1 [2] = biological target: T1, CDK9/CycT1; experiment: CDK9/CycT1 high ATP kinase assay (Method 1b); assay type: biochemical; details: 2 mM ATP
How it was run: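 Full-length His-tagged human CDK9/CycT1 (insect cells, ~0.5 μg/ml) pre-incubated 15 min at 22 °C with compound in Tris pH 8.0/MgCl2/DTT buffer; biotinylated peptide substrate, high ATP. After detection reagents, 1 h at 22 °C; TR-FRET 665/620 nm emission ratio (350 nm excitation) measured phosphorylation.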

[3] = tested on: HeLa, human cervical tumour cells; experiment: Proliferation assay, HeLa (Method 3); assay type: cell-based; details: 4 days, crystal violet, read-out: Inhibition of HeLa cell proliferation IC50
How it was run: (§1)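 Cells were seeded and, after 24 h, exposed to compounds at 0.001–10 µM (final DMSO 0.5%) for 4 days. Cell number was measured by glutaraldehyde fixation, crystal violet staining and absorbance at 595 nm. Values were normalised to a zero-point plate (0%) and untreated cells (100%).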

[4] = tested on: A2780, human ovarian carcinoma cells; experiment: Proliferation assay, A2780 (Method 3); assay type: cell-based; details: A2780, 4 days, crystal violet, read-out: Inhibition of A2780 cell proliferation IC50
How it was run: as §1

[5] = tested on: B16F10, mouse melanoma cells; experiment: Proliferation assay, B16F10 (Method 3); assay type: cell-based; details: B16F10, 4 days, crystal violet, read-out: Inhibition of B16F10 cell proliferation IC50
Procedure: (§2) After 24 hours, the cells of one plate (zero-point plate) were stained with crystal violet (see below), while the medium of the other plates was replaced by fresh culture medium (200 μl), to which the test substances were added in various concentrations (0 μM, as well as in the range of 0.001-10 μM; the final concentration of the solvent dimethyl sulfoxide was 0.5%). The cells were incubated for 4 days in the presence of test substances. Cell proliferation was determined by staining the cells with crystal violet: the cells were fixed by adding 20 μl/measuring point of an 11% glutaric aldehyde solution for 15 minutes at room temperature. After three washing cycles of the fixed cells with water, the plates were dried at room temperature. The cells were stained by adding 100 μl/measuring point of a 0.1% crystal violet solution (pH 3.0). After three washing cycles of the stained cells with water, the plates were dried at room temperature. The dye was dissolved by adding 100 μl/measuring point of a 10% acetic acid solution. The extinction was determined by photometry at a wavelength of 595 nm. The change of cell number, in percent, was calculated by normalization of the measured values to the extinction values of the zero-point plate (=0%) and the extinction of the untreated (0 μm) cells (=100%).

[6] = tested on: Caco-2, human colorectal carcinoma cells; experiment: Proliferation assay, Caco-2 (Method 3); assay type: cell-based; details: Caco-2, 4 days, crystal violet, read-out: Inhibition of Caco-2 cell proliferation IC50
Procedure: as §2

[7] = tested on: NCI-H460, human non-small cell lung carcinoma cells; experiment: Proliferation assay, NCI-H460 (Method 3); assay type: cell-based; details: NCI-H460, 4 days, crystal violet, read-out: Inhibition of H460 cell proliferation IC50
Procedure: as §2

[8] = tested on: HeLa-MaTu-ADR, multidrug-resistant human cervical carcinoma cells; experiment: Proliferation assay, HeLa-MaTu-ADR (Method 3); assay type: cell-based; details: 4 days, crystal violet, read-out: Inhibition of HeLa-MaTu-ADR cell proliferation IC50
Procedure: as §2

Structure (SMILES) | IC50 (CDK9/CycT1 [1]) | Selectivity CDK9/CDK2 (CDK9/CycT1 [1]) | IC50 (CDK9/CycT1 [2]) | IC50 ([3]; Homo sapiens, 96 h) | IC50 ([4]; Homo sapiens, A2780, 96 h) | IC50 ([5]; Mus musculus, B16-F10, 96 h) | IC50 ([6]; Homo sapiens, Caco-2, 96 h) | IC50 ([7]; Homo sapiens, NCI-H460, 96 h) | IC50 ([8]; Homo sapiens, 96 h) | IC50 [5] | IC50 [6] | IC50 [4] | IC50 [3] | IC50 [7] | IC50 [8]
CS(=O)(Cc1cc(Nc2ncc(F)c(-c3ccc(F)cc3F)n2)cc(C(F)(F)F)c1)=NC#N (racemic) [Example 1, (rac)-{[3-{[4-(2,4-Difluorophenyl)-5-fluoropyrimidin-2-yl]amino}-5-(trifluoromethyl)benzyl](methyl)oxido-λ^6-sulfanylidene}cyanamide] | 13 nM | 105 | 39 nM | 440 nM |  |  |  |  |  |  |  |  |  |  | 
CS(=N)(=O)Cc1cc(Nc2ncc(F)c(-c3ccc(F)cc3F)n2)cc(C(F)(F)F)c1 (racemic) [Example 4, (rac)-4-(2,4-Difluorophenyl)-5-fluoro-N-{3-[(S-methylsulfonimidoyl)methyl]-5-(trifluoromethyl)phenyl}pyrimidin-2-amine] | 10 nM | 88 | 251 nM | 960 nM |  |  |  |  |  |  |  |  |  |  | 
CS(=N)(=O)Cc1cc(Cl)cc(Nc2ncc(F)c(-c3ccc(F)cc3F)n2)c1 (racemic) [Example 15, (rac)-N-{3-chloro-5-[(S-methylsulfonimidoyl)methyl]phenyl}-4-(2,4-difluorophenyl)-5-fluoropyrimidin-2-amine] | 24 nM | 26 | 892 nM | 2210 nM | 110 nM |  |  |  |  |  |  |  |  |  | 
CS(=O)(Cc1cc(Nc2ncc(F)c(-c3ccc(F)cc3F)n2)cc(S(F)(F)(F)(F)F)c1)=NC#N (racemic) [Example 28, (rac)-{[3-{[4-(2,4-Difluorophenyl)-5-fluoropyrimidin-2-yl]amino}-5-(pentafluoro-λ^6-sulfanyl)benzyl](methyl)oxido-λ^6-sulfanylidene}cyanamide] | 6 nM | 210 | 5 nM | 262 nM | 185 nM | 363 nM | 222 nM | 359 nM | 120 nM |  |  |  |  |  | 
CS(=N)(=O)Cc1cc(Nc2ncc(F)c(-c3ccc(F)cc3F)n2)cc(S(F)(F)(F)(F)F)c1 (single isomer, unassigned) [Example 32, 4-(2,4-Difluorophenyl)-5-fluoro-N-{3-[(S-methylsulfonimidoyl)methyl]-5-(pentafluoro-λ^6-sulfanyl)phenyl}pyrimidin-2-amine] | 6 nM | 263 | 6 nM |  |  | 406 nM | 282 nM | 483 nM | 304 nM |  |  | 268 nM | 331 nM |  | 
CS(=O)(Cc1cc(Nc2ncc(F)c(-c3ccc(F)cc3F)n2)cc(S(F)(F)(F)(F)F)c1)=NC(N)=O (single isomer, unassigned) [Example 33, 1-{[3-{[4-(2,4-Difluorophenyl)-5-fluoropyrimidin-2-yl]amino}-5-(pentafluoro-λ^6-sulfanyl)benzyl](methyl)oxido-λ^6-sulfanylidene}urea] | 16 nM | 98 | 99 nM | 278 nM |  | 611 nM |  |  |  |  | 716 nM | 246 nM |  | 675 nM | 495 nM

Other lines, results leading:

IC50 (CDK9/CycT1 [1]) | Selectivity CDK9/CDK2 (CDK9/CycT1 [1]) | IC50 (CDK9/CycT1 [2]) | IC50 ([3]; Homo sapiens, 96 h) | IC50 ([4]; Homo sapiens, A2780, 96 h) | IC50 ([5]; Mus musculus, B16-F10, 96 h) | IC50 ([6]; Homo sapiens, Caco-2, 96 h) | IC50 ([7]; Homo sapiens, NCI-H460, 96 h) | IC50 ([8]; Homo sapiens, 96 h) | IC50 [5] | IC50 [6] | IC50 [4] | IC50 [3] | IC50 [7] | IC50 [8] | Structure (SMILES)
12 nM | 98 | 105 nM | 470 nM |  |  |  |  |  |  |  |  |  |  |  | CS(=O)(Cc1cc(Nc2ncc(F)c(-c3ccc(F)cc3F)n2)cc(C(F)(F)F)c1)=NC(N)=O (racemic) [Example 7, (rac)-1-{[3-{[4-(2,4-Difluorophenyl)-5-fluoropyrimidin-2-yl]amino}-5-(trifluoromethyl)benzyl](methyl)oxido-λ^6-sulfanylidene}urea]
7 nM | 166 | 29 nM | 350 nM | 130 nM | 390 nM | 300 nM | 360 nM | 320 nM |  |  |  |  |  |  | CS(=O)(Cc1cc(Nc2ncc(F)c(-c3ccc(F)cc3F)n2)cc(C(F)(F)F)c1)=NC#N (single isomer, unassigned) [Example 2, {[3-{[4-(2,4-Difluorophenyl)-5-fluoropyrimidin-2-yl]amino}-5-(trifluoromethyl)benzyl](methyl)oxido-λ^6-sulfanylidene}cyanamide]
8 nM | 170 | 32 nM |  |  |  |  |  |  | 340 nM | 300 nM | 260 nM | 590 nM | 340 nM | 200 nM | CS(=O)(Cc1cc(Nc2ncc(F)c(-c3ccc(F)cc3F)n2)cc(C(F)(F)F)c1)=NC#N (single isomer, unassigned) [Example 3, {[3-{[4-(2,4-Difluorophenyl)-5-fluoropyrimidin-2-yl]amino}-5-(trifluoromethyl)benzyl](methyl)oxido-λ^6-sulfanylidene}cyanamide]
4 nM | 88 | 16 nM |  |  | 380 nM | 230 nM | 350 nM | 200 nM |  |  | 970 nM | 290 nM |  |  | CS(=O)(Cc1cc(Nc2ncc(F)c(-c3ccc(F)cc3F)n2)cc(C(F)(F)F)c1)=NC(N)=O (single isomer, unassigned) [Example 23, 1-{[3-{[4-(2,4-Difluorophenyl)-5-fluoropyrimidin-2-yl]amino}-5-(trifluoromethyl)benzyl](methyl)oxido-λ^6-sulfanylidene}urea]
